# Reference: PubChem BioAssay AID179 (DTP/NCI, 2004)
# Values joined by “and” are separate entries in the source; they are usually repeats but may differ in a detail not shown here. Equal entries are not always repeated. Active and inactive are the calls of the source.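 Rule for the calls: active = compounds giving half or more protection of infected cells from virus-caused growth loss, again on retest; inactive = the rest.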 Where a SMILES comes first, the peptide text is derived from it.
# Tested on: CEM cells HIV-1 protection, formazan growth assay
# Assay: NCI AIDS Antiviral Assay
# Details: for IC50: measured here: growth of uninfected CEM cells
# In short: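 Category rules: moderately active means at least 50% protection on retest, and confirmed active means 100% protection reproducibly. The underlying data came from a formazan growth assay in HIV-1-infected CEM cells.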
SMILES,outcome,EC50 [µM],IC50
CC/C(CC(=O)CCC(=O)Nc1ccc(C)c(C)c1)=N\NC(=O)C(N)=O,inactive,,
CN(C)CCC(O)(Cc1ccccc1)c1cccc(Cl)c1 (configuration not stated),,> 200,87.1 µM
CC(C)CC(N)C(=O)NC(CC(=O)O)C(=O)NC(CCCCN)C(=O)NC(C)C(=O)NC(CO)C(=O)NC(Cc1ccc(O)cc1)C(=O)NC(CO)C(=O)NC(C(=O)O)C(C)O (configuration not stated) (H-LDKASYST-OH; configuration not given here),,> 56.2,> 56.2 µM
N#Cc1c(-c2ccco2)cc(-c2ccc(NCc3nc4ccccc4[nH]3)cc2)nc1N,,> 12.9,> 12.9 µM
COc1cc(C(=O)/C=C/c2ccccc2O)ccc1O,,> 132,102 µM
O=Nc1ccc(Cl)cc1,inactive,,
Fc1ccc2nncc(SCc3ccc(Cl)cc3)c2c1,,> 87.1,> 87.1 µM
O=C(Nc1ccc(Cl)cc1)Sc1nnc2c(n1)[nH]c1ccccc12,,30.2,> 200 µM
C1CSCCCSCCCSCCCSCCCSCCCSCCCSCCCSC1,,> 8.71,> 8.71 µM
COc1cc2c[n+]3ccc4cc(OC)c(OC)cc4c3cc2cc1O,inactive,,
C[As+](C)(C)CC1OC(OCC(O)COS(=O)(=O)[O-])C(O)C1O (configuration not stated),inactive,,
O=C(Nc1ccccc1)Oc1ccccc1C1CCCCC1,inactive,,
CCC1OC(=O)[C@H](C)C(OC2CC(C)(OC)C(O)C(C)O2)C(C)C(OC2OC(C)CC(N(C)C)C2O)[C@](C)(O)CC(C)CN(C)[C@H](C)[C@@H](O)[C@]1(C)O (some centres not stated),,> 200,132 µM
Cc1ccccc1-n1c(SCC(=O)NC(=O)Nc2cccc(Cl)c2)nc2c(Br)cc(Br)cc2c1=O,,> 200,> 200 µM
CC(C)CC1NC(=O)C(CC(C)C)N(CO)C1=O (configuration not stated),,> 200,> 200 µM
COC(=O)c1ccc(NCC2=C(Br)C(=O)C=CC2=O)cc1Cl,inactive,,
Cc1[nH]c(=O)nc(NCCNCCO)c1C(=O)Nc1cccc2cc3ccccc3cc12,,> 200,> 200 µM
CC(=O)c1ccc(NC(=O)C(=O)CC(=O)c2sc(-n3nc(-c4ccccc4)cc3-c3ccccc3)nc2C)cc1,,> 155,> 155 µM
COc1cc(-c2ccc(N=Nc3ccc4c(S(=O)(=O)O)cc(S(=O)(=O)O)c(N)c4c3O)c(OC)c2)ccc1N=Nc1ccc2c(S(=O)(=O)O)cc(S(=O)(=O)O)c(N)c2c1O,active,5.01,49 µM
C=CC1(c2ccc(Br)cc2)OCCCO1,,> 200,> 200 µM
O=C(O)CCc1nn2c(nc1=O)sc1ccc3ccccc3c12,,> 50.1,> 50.1 µM
O=[N+]([O-])OC1CCCC(O[N+](=O)[O-])c2c1n([O-])c1ccccc1[n+]2=O (configuration not stated),,> 51.3,1.41 µM

SMILES,outcome,EC50 [µM],IC50
CC(C)=CC[C@]12CCN(C)[C@H]1N(S(=O)(=O)c1ccccc1)c1ccccc12,,> 200,135 µM
S=C(N/N=C(/c1ccccc1)c1ccccn1)N1CCCCC1,,> 2,0.0389 µM
O=S(=O)(O)c1cc(N=Nc2cc(S(=O)(=O)O)c3cccnc3c2O)ccc1/C=C/c1ccc(N=Nc2cc(S(=O)(=O)O)c3cccnc3c2O)cc1S(=O)(=O)O (tested in a mixture with another compound),,2.95,50.1 µM
CC1CC(=O)NC2CC1C2(C)C (configuration not stated),,> 1480,> 1480 µM
CCCC[n+]1cc(C(N)=O)cc2ccccc21,,0.0692,219 µM
CC(=O)N1C(Nc2ccccc2)CCN1c1ccccc1 (configuration not stated),,> 200,11.2 µM
CNCCCCN(C)/[N+]([O-])=N\O,,> 8910,4070 µM
COc1ccc(Cc2c(=O)[nH]nc3ccccc23)cc1,,> 70.8,> 70.8 µM
CN1CCN(C2Sc3ccccc3C(=O)N3CCCC23)CC1 (configuration not stated),,> 126,> 126 µM
Cc1cc2c(cc1C)NC(C)CC(=O)N2 (configuration not stated),,> 200,> 200 µM
CC(=O)Nc1ccc([As](=O)(O)O)cc1NC(C)=O,,> 200,28.2 µM
OCC1NC(CO)C(O)C1O (configuration not stated),inactive,,
COC(=O)C(=O)OC1(C(C)=O)CC2(c3ccccc3)OC1(c1ccccc1)c1ccccc12 (configuration not stated),inactive,,
O=c1c2c([nH]c3nccn13)CCC2,,> 200,> 200 µM
CCNC(=O)N(CC)CN(CC)C(=O)NCC,,> 182,95.5 µM
CC(=O)c1ccc(NC(=O)CSc2nc(C)nc3c2sc(=S)n3-c2ccccc2)cc1,,> 200,> 200 µM
Cc1ccc2c(c1)S(=O)(=O)NC2=O,,> 1260,1230 µM
COC(=O)CN1SC2(SC13C(C)(C)C(=O)C3(C)C)C(C)(C)C(=O)C2(C)C,,> 200,50.1 µM
CCCN1C(=O)c2cc(=O)[nH]c(O)c2C1C (configuration not stated),,> 117,81.3 µM
CCOC(=O)c1c(NC(=O)CCC(=O)Nc2sc(C)c(C)c2C(=O)OCC)sc(C)c1C,,> 100,> 100 µM
CC(C(O)Cc1ccccc1)N(C)N=Nc1ccc([N+](=O)[O-])cc1 (configuration not stated),,> 200,20 µM
Cc1cc(S(=O)(=O)NC2=NCC(C)(C)CN2)c(S)cc1Cl,,> 200,87.1 µM

SMILES,outcome,EC50 [µM],IC50
O=C(Cc1nc(-c2ccccc2)cc(=O)n1-c1ccccc1Cl)c1ccncc1,,> 1.35,> 1.35 µM
CN(C)CC1CCCC/C1=N/OC(=O)c1ccc(Cl)c(Cl)c1 (configuration not stated),inactive,,
O=C1[C@@H]2C(c3ccc(Cl)cc3Cl)=NO[C@@H]2C(=O)N1c1ccc(Cc2ccc(N3C(=O)[C@H]4C(c5ccc(Cl)cc5Cl)=NO[C@H]4C3=O)cc2)cc1,,> 7.08,> 7.08 µM
C/C(=N\OC(=O)Nc1ccccc1)c1ccccc1,,> 200,132 µM
CCC12C[N+]3([O-])CCc4c([nH]c5ccccc45)C(C(=O)OC)(c4cc5c(cc4OC)N(C)C4C(O)(C(=O)OC)C(OC(C)=O)C6(CC)C=CCN7CCC54C76)CC(C3)C1O2 (configuration not stated),inactive,,
Cn1c(N)c(Br)c(=O)n(C)c1=O,,> 200,> 200 µM
O=S1(=O)OCCOS(=O)(=O)C1(I)I,,> 550,123 µM
O=C1N[Se](=O)c2ccccc21 (configuration not stated),,2.69,22.9 µM
CC(C)=NOC(=O)OC[C@H]1O[C@@H](n2cnc3c(N)ncnc32)C(O)C1O (some centres not stated),,> 200,> 200 µM
Cc1ccc(S(=O)(=O)NC2C(=O)c3ccccc3C(=O)C2n2cnc3ccccc32)cc1 (configuration not stated),,> 200,42.7 µM
CC(=Nc1ccccc1C(=O)[O-])c1c([O-])ccc2c(C)cc(=O)oc12.[OH3+].[OH3+].[OH3+].[Zn+2],,> 2.29,> 2.29 µM
CCC(Oc1ccc(OC)c2c1C(=O)CCC2)C(=O)O (configuration not stated),inactive,,
CCOC(=O)c1sc(Nc2cc(Cl)ccc2Cl)nc1C,inactive,,
CC(C)C1CC=CC2[C@H]3C(C)(CC[C@]12CBr)C(Br)CC[C@@]3(C)O (some centres not stated),inactive,,
O=C(O)CCCCCCCc1cc(O)ccc1[N+](=O)[O-],,> 200,> 200 µM
CN(C)NP(=O)(NN(C)C)NN(C)C,,> 200,> 200 µM
C/C(=N\N=C(/[O-])c1ccccc1)c1cccc(/C(C)=N/N=C(\[O-])c2ccccc2)n1.O.[Ni+2],,> 100,> 100 µM
COc1cc(N)ccc1Nc1c2ccccc2nc2ccccc12,,> 200,1.02 µM
CN(C)CCCNC(=O)c1c(O)c2ccccc2[nH]c1=O,,> 200,> 200 µM
COc1ccc2nc3cc(Cl)ccc3c(Nc3ccccc3-c3ccccc3Nc3c4ccc(Cl)cc4nc4ccc(OC)cc34)c2c1,,> 4.07,> 4.07 µM
CCOC(=O)c1[nH]c2c(OCC)nc(OCC)nc2c1Br,,> 200,> 200 µM
Cc1ccc(/C=C2\CN(C)CC3C(c4ccc(C)cc4)=C(C#N)C(=O)NC23)cc1 (configuration not stated),,> 200,> 200 µM

SMILES,outcome,EC50 [µM],IC50
CO[C@@]12[C@H](COC(N)=O)C3=C(C(=O)C(C)=C(N)C3=O)N1C[C@@H]1N[C@@H]12,,> 17.4,0.794 µM
O=C1c2ccccc2CC1(Br)C(Br)c1ccccc1 (configuration not stated),,> 200,10.7 µM and 10 µM
C=CCN1C(=O)CS/C1=N/NC(=O)C(O)(c1ccccc1)c1ccccc1,,> 200,129 µM
O=C1CS(=O)(=O)C(c2ccccc2)N1N1C(=O)CS(=O)(=O)C1c1ccccc1 (configuration not stated),,> 200,> 200 µM
CCOC(=O)c1cnc2c3c(noc13)CCC2,,> 200,34.7 µM
C=C[C@H](C)[C@H](O[Si](C)(C)C(C)(C)C)c1c(O)c2c(c3c(CCC)cc(=O)oc13)OC(C)(C)C=C2,,> 200,39.8 µM
C[Si](C)(C)C#CC(O)CS(=O)c1ccccc1 (configuration not stated),,> 200,105 µM
CCOC(=O)Cc1cc(=O)n(C)c2ccccc12,,> 200,> 200 µM
C/C(C=C(C#N)C#N)=C\c1ccccc1,,> 97.7,39.8 µM
NC(C(=O)O)C1=CCCC1 (configuration not stated),,> 200,> 200 µM
COc1ccc(CCN2COc3ccc4ccc(=O)oc4c3C2)cc1OC,,> 200,67.6 µM
CC(C)C(=O)NCC[C@@H](CNC(=O)OC(C)(C)C)NC(=O)OC(C)(C)C,,> 200,> 200 µM
CC(C)CCCC(C)[C@H]1CC[C@H]2[C@@H]3CC[C@H]4C[C@@H](CCC=C(c5cc(Cl)c(OC(=O)c6ccccc6)c(C(=O)O)c5)c5cc(Cl)c(OC(=O)c6ccccc6)c(C(=O)O)c5)CC[C@]4(C)[C@H]3CC[C@]12C (some centres not stated),,> 200,> 200 µM
Nc1nc(N)c(N=O)c(N)n1,,> 200,170 µM
Cc1cc(NC(=O)NC/C(Cl)=C/Cl)c2ccccc2n1,,> 200,29.5 µM
COc1cc2c3c(c1)[nH]c(=S)n3C(=O)CCS2,,> 200,> 100 µM
Cc1cc2c(-c3ccccc3)cc(=O)[nH]c2cc1N,,186,> 200 µM
COC1=CC(C)C2C[C@H]3O[C@H](O)C[C@H]4C(C)C(=O)C(O)C([C@@]2(C)C1=O)[C@@]34C (some centres not stated),inactive,,
CC1(C)CNC[C@](C)(OCc2ccccc2)C(=O)[N-]C(C)(C)CNC[C@@](C)(OCc2ccccc2)C(=O)[N-]1.[Ni+2],,> 200,151 µM
